Test results taken from PubChem BioAssay AID651878 (Vanderbilt Specialized Chemistry Center, 2012).
Active and inactive are the calls of the source.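 The calls were made as follows: active = Positive modulators of the M5 receptor in a calcium signal test, half-maximal potency under 10 µM; inactive = the rest.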

target: Muscarinic acetylcholine receptor M5 (Homo sapiens) (UniProt P08912); assay: M5 receptor positive allosteric modulators, dose response, cell-based, concentration-response curve (AID 651878); conditions: CHO-K1 hM5, Fluo-4 calcium flux, ACh EC20 potentiation
Sequence (P08912 whole entry, looked up): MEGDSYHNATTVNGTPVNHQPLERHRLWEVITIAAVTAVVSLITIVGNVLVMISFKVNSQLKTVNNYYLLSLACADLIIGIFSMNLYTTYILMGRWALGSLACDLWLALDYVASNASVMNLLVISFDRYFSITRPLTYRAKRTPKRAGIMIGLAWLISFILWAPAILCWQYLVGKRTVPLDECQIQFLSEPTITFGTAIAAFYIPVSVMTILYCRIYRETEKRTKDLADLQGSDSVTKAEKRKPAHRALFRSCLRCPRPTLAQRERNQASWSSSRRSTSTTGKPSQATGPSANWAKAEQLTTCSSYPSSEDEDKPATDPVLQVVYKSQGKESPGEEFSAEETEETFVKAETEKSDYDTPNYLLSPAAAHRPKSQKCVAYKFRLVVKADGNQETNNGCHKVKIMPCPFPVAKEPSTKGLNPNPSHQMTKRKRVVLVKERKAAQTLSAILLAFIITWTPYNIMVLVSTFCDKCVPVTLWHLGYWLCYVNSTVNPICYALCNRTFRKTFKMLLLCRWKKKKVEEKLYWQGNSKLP

Row | Structure (SMILES) | EC50
1 | COc1ccc(CN2C(=O)C(O)(c3ccc(F)nc3)c3cc(OC(F)(F)F)ccc32)cc1 (configuration not stated) | 2.19 µM
2 | COc1ccc(CN2C(=O)C(O)(C[N+](=O)[O-])c3cc(OC(F)(F)F)ccc32)cc1 (configuration not stated) | 1.38 µM

same assay, conditions: CHO-K1 hM5, Fluo-4 calcium flux, ACh EC20 potentiation; at 31.6 µM (top of the series)

Row | Structure (SMILES) | % ACh max response
3 | COc1ccc(-c2ccc(CN3C(=O)C(=O)c4cc(OC(F)(F)F)ccc43)cc2)cn1 | 71.9%
4 | COc1ncc(-c2ccc(CN3C(=O)C(=O)c4cc(OC(F)(F)F)ccc43)cc2)cn1 | 74.4%
5 | COc1ccc(CN2C(=O)C(O)(c3ccc(N(C)C)nc3)c3cc(OC(F)(F)F)ccc32)cc1 (configuration not stated) | inactive

Now from value to molecule:

Row | % ACh max response | Structure (SMILES)
6 | inactive | COc1ccc(CN2C(=O)C3(COC3)c3cc(OC(F)(F)F)ccc32)cc1
7 | inactive | COc1ccc(CN2C(=O)C(CO)(CO)c3cc(OC(F)(F)F)ccc32)cc1
